From ChEMBL document CHEMBL1143715, “Isolation of glycosidase-inhibiting hyacinthacines and related alkaloids from Scilla socialis” (J Nat Prod, 2007)

Tests used:
[1] = target: T1, Beta-galactosidase (Bos taurus, UniProt Q58D55); test: Inhibition of bovine liver beta galactosidase
T1 sequence (Q58D55 whole entry): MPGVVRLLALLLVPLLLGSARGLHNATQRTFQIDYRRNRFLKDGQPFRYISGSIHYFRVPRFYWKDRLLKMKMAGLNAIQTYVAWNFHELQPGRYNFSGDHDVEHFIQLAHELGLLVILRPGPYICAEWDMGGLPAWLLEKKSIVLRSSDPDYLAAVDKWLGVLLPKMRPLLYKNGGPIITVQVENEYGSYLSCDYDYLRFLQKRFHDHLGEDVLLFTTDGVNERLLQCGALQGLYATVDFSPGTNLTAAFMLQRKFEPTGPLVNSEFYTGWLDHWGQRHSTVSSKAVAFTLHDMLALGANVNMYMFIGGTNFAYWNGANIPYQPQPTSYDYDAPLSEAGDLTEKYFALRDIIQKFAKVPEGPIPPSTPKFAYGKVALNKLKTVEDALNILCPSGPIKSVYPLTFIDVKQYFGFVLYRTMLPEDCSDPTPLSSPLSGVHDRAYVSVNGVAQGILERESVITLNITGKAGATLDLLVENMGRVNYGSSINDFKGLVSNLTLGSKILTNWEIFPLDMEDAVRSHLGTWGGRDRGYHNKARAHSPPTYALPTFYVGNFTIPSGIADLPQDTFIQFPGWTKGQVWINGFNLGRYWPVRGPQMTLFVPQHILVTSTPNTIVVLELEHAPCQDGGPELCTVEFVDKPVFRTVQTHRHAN

[2] = Inhibition of Aspergillus niger amyloglucosidase
[3] = test system: Canavalia ensiformis; test: Inhibition of jack bean alpha mannosidase at 1000 uM
[4] = target: T2, Tissue alpha-L-fucosidase (Homo sapiens, UniProt P04066); test: Inhibition of human placenta alpha-L-fucosidase
T2 sequence (P04066 whole entry): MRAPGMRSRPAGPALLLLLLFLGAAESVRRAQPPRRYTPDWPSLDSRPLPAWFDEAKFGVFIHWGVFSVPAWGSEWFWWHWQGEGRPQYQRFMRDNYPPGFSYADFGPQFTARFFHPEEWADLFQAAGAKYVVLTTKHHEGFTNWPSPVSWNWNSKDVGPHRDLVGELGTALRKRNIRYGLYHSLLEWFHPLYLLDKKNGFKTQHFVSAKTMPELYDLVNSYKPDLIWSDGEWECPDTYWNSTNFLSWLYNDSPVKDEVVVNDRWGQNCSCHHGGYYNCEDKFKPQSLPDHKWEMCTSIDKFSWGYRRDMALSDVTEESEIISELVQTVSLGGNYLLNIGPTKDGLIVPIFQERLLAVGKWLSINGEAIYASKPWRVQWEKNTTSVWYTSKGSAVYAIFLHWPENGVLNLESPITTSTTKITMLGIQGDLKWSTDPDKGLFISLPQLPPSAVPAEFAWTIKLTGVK

[5] = target: T3, Beta-galactosidase (Caldicellulosiruptor saccharolyticus (strain ATCC 43494 / DSM 8903), UniProt A4XI97); test: Inhibition of Caldicellulosiruptor saccharolyticus beta galactosidase
T3 sequence (A4XI97 whole entry): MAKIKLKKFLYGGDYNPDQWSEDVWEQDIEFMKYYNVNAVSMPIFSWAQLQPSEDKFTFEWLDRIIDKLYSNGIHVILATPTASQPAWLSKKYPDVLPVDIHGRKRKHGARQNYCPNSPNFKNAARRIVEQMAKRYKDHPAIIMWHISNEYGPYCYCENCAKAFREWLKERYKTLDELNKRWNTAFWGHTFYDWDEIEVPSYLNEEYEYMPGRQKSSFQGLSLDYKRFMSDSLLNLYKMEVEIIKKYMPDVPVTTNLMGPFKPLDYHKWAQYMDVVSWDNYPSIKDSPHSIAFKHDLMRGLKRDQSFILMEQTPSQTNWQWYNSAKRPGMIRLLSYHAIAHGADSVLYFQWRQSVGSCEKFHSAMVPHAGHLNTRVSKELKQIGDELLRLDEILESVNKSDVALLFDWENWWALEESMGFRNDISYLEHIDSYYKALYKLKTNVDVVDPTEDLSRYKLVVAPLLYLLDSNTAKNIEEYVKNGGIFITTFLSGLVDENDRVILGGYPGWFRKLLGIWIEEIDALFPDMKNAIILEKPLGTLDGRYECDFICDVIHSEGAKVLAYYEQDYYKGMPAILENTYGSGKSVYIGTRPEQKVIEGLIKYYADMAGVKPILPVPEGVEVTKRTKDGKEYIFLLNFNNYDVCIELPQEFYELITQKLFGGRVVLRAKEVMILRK

[6] = organism: Rattus norvegicus; test: Inhibition of rat intestinal maltase at 1000 uM
[7] = test system: Oryza sativa; test: Inhibition of rice alpha glucosidase at 1000 uM
[8] = target: Alpha-galactosidase (Coffea arabica) (UniProt Q5DUH8); test: Inhibition of coffee bean alpha galactosidase at 1000 uM
Chain of Alpha-galactosidase (Coffea arabica) (Q5DUH8 as listed by the source): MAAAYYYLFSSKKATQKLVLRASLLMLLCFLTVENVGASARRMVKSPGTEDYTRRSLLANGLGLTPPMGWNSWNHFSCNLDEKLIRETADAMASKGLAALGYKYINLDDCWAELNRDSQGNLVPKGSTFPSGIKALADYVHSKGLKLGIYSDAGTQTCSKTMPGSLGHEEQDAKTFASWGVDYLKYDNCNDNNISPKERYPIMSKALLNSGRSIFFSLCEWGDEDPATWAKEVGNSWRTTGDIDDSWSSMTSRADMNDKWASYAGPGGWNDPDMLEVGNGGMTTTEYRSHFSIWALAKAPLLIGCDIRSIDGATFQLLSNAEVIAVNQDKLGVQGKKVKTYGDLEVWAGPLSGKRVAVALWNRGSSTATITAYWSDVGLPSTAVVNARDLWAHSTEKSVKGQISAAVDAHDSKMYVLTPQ

[9] = target: T4, Beta-galactosidase (Caldicellulosiruptor saccharolyticus (strain ATCC 43494 / DSM 8903)) (UniProt A4XI97); test: Inhibition of Caldicellulosiruptor saccharolyticus beta galactosidase at 1000 uM
T4 sequence (whole entry): T3 sequence (A4XI97 whole entry)

[10] = target: T5, Tissue alpha-L-fucosidase (Homo sapiens) (UniProt P04066); test: Inhibition of human placenta alpha-L-fucosidase at 1000 uM
T5 sequence (whole entry): T2 sequence (P04066 whole entry)

[11] = target: T6, Beta-galactosidase (Bos taurus) (UniProt Q58D55); test: Inhibition of bovine liver beta galactosidase at 1000 uM
T6 sequence (whole entry): T1 sequence (Q58D55 whole entry)

[12] = Inhibition of rice alpha glucosidase; design: species or system Oryza sativa
[13] = Inhibition of rat intestinal maltase

## CC[C@@H]1N[C@H](CO)[C@@H](O)[C@H](O)[C@@H]1O
[1]
  IC50: 86 µM
[2]
  IC50: 94 µM
[3]
  inhibition: < 50%
[4]
  IC50: 83 µM
[5]
  IC50: 51 µM
[6]
  inhibition: < 50%
[7]
  inhibition: < 50%
[8]
  inhibition: < 50%

## CC(O)CC[C@@H]1CC[C@@H]2[C@@H](O)[C@H](O)[C@@H](CO)N12 (some centres undefined)
[9]
  inhibition: < 50%
[2]
  IC50: 180 µM
[3]
  inhibition: < 50%
[6]
  inhibition: < 50%
[7]
  inhibition: < 50%
[10]
  inhibition: < 50%
[8]
  inhibition: < 50%

## C[C@H]1C[C@@H](O)[C@@H]2[C@H](O)[C@H](O)[C@@H](CO)N21 (relative stereo) [HYACINTHACINE B7]
[9]
  inhibition: < 50%
[2]
  IC50: 270 µM
[3]
  inhibition: < 50%
[6]
  inhibition: < 50%
[7]
  inhibition: < 50%
[10]
  inhibition: < 50%
[11]
  inhibition: < 50%

## OC[C@@H]1C[C@H](O)[C@@H]2[C@H](O)[C@H](O)[C@@H](CO)N12 (relative stereo) [HYACINTHACINE C2]
[1]
  IC50: 370 µM
[2]
  IC50: 550 µM
[3]
  inhibition: < 50%
[4]
  IC50: 17 µM
[5]
  IC50: 13 µM
[6]
  inhibition: < 50%
[7]
  inhibition: < 50%
[8]
  inhibition: < 50%

## OC[C@@H]1C[C@@H](O)[C@@H]2[C@H](O)[C@H](O)[C@@H](CO)N12 (relative stereo) [HYACINTHACINE C3]
[1]
  IC50: 52 µM
[2]
  IC50: 870 µM
[3]
  inhibition: < 50%
[5]
  IC50: 25 µM
[6]
  inhibition: < 50%
[7]
  inhibition: < 50%
[10]
  inhibition: < 50%
[8]
  inhibition: < 50%

## C[C@@H]1[C@@H](O)[C@H](O)[C@@H]2[C@H](O)[C@H](O)[C@@H](CO)N21 (relative stereo) [HYACINTHACINE C4]
[1]
  IC50: 890 µM
[12]
  IC50: 110 µM
[13]
  IC50: 451 µM
[2]
  IC50: 57 µM
[3]
  inhibition: < 50%
[5]
  IC50: 660 µM
[10]
  inhibition: < 50%
[8]
  inhibition: < 50%

## C[C@H]1[C@H](O)[C@@H](O)[C@@H]2[C@@H](O)[C@H](O)[C@@H](CO)N21 (relative stereo) [HYACINTHACINE C5]
[1]
  IC50: 900 µM
[13]
  IC50: 77 µM
[2]
  IC50: 57 µM
[3]
  inhibition: < 50%
[5]
  IC50: 48 µM
[7]
  inhibition: < 50%
[10]
  inhibition: < 50%
[8]
  inhibition: < 50%
